Laboratory results: ChEMBL document CHEMBL5260810, “Inhibition of bromodomain-containing protein 9 for the prevention of epigenetically-defined drug resistance” (Bioorg Med Chem Lett, 2017)

Tested on: ChaGo-K-1
Assay: Cytotoxicity against human ChaGo-K-1 cells measured after 8 days
Format: functional, cell-based
Conditions: ChaGo-K-1, 192 h

Compound	IC50 [nM]
C/C=C/Cn1cc(-c2cc(OC)c(C(=O)N3CCOCC3)cc2OC)c2cc(C)[nH]c2c1=O	2000
C/C=C/Cn1cc(-c2ccc(C(C)(C)O)cc2OC)c2cc[nH]c2c1=O	20000

Tested on: RKO
Assay: Cytotoxicity against human RKO cells measured after 8 days
Format: functional, cell-based
Conditions: 192 h

Compound	IC50 [nM]
C/C=C/Cn1cc(-c2cc(OC)c(C(=O)N3CCOCC3)cc2OC)c2cc(C)[nH]c2c1=O	2000
C/C=C/Cn1cc(-c2ccc(C(C)(C)O)cc2OC)c2cc[nH]c2c1=O	20000

Tested on: GTL 16 cell line
Assay: Cytotoxicity against human GTL 16 cell line measured after 8 days
Format: functional, cell-based
Conditions: GTL 16, 192 h

Compound	IC50 [nM]
C/C=C/Cn1cc(-c2cc(OC)c(C(=O)N3CCOCC3)cc2OC)c2cc(C)[nH]c2c1=O	2000
C/C=C/Cn1cc(-c2ccc(C(C)(C)O)cc2OC)c2cc[nH]c2c1=O	20000

Species: Homo sapiens
Assay: Displacement of [3H]BRL 43694 from human recombinant 5-HT3 receptor at 10 uM after 120 mins by scintillation counting analysis relative to control
Conditions: not given

Compound	Activity [%]
C/C=C/Cn1cc(-c2cc(OC)c(C(=O)N3CCOCC3)cc2OC)c2cc(C)[nH]c2c1=O	-5
C/C=C/Cn1cc(-c2ccc(C(C)(C)O)cc2OC)c2cc[nH]c2c1=O	-6

Tested on: not listed separately
Assay: Cytotoxicity against human COLO 206F cells measured after 8 days
Format: functional, cell-based
Conditions: 192 h

Compound	IC50 [nM]
C/C=C/Cn1cc(-c2cc(OC)c(C(=O)N3CCOCC3)cc2OC)c2cc(C)[nH]c2c1=O	2000
C/C=C/Cn1cc(-c2ccc(C(C)(C)O)cc2OC)c2cc[nH]c2c1=O	20000

Tested on: COLO 320
Assay: Cytotoxicity against human COLO 320 cells measured after 8 days
Format: functional, cell-based
Conditions: COLO 320, 192 h

Compound	IC50 [nM]
C/C=C/Cn1cc(-c2cc(OC)c(C(=O)N3CCOCC3)cc2OC)c2cc(C)[nH]c2c1=O	2000
C/C=C/Cn1cc(-c2ccc(C(C)(C)O)cc2OC)c2cc[nH]c2c1=O	20000

Biological target: Tyrosine-protein kinase Yes (Homo sapiens) (UniProt P07947)
Sequence (P07947 2-543 limits assumed): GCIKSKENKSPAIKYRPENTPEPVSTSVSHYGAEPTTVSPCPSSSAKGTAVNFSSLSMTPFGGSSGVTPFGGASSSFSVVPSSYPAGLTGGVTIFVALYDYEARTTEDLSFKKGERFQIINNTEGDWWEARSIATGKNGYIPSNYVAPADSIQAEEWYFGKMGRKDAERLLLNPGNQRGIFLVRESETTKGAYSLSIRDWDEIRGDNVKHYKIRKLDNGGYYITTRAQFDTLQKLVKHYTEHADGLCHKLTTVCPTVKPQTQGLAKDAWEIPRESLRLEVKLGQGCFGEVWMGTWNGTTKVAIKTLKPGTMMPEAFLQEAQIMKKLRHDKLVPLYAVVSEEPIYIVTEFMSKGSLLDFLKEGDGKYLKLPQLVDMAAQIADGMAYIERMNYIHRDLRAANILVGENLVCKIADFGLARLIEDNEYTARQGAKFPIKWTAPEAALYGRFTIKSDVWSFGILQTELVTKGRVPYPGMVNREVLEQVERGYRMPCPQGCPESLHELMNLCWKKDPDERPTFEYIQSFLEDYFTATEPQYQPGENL
Assay: Inhibition of Yes (unknown origin) at 1 uM relative to control
Conditions: not given

Compound	inhibition [%]
C/C=C/Cn1cc(-c2cc(OC)c(C(=O)N3CCOCC3)cc2OC)c2cc(C)[nH]c2c1=O	5.5
C/C=C/Cn1cc(-c2ccc(C(C)(C)O)cc2OC)c2cc[nH]c2c1=O	6

Biological target: 5-hydroxytryptamine receptor 2A (Homo sapiens) (UniProt P28223)
Sequence (P28223 whole entry): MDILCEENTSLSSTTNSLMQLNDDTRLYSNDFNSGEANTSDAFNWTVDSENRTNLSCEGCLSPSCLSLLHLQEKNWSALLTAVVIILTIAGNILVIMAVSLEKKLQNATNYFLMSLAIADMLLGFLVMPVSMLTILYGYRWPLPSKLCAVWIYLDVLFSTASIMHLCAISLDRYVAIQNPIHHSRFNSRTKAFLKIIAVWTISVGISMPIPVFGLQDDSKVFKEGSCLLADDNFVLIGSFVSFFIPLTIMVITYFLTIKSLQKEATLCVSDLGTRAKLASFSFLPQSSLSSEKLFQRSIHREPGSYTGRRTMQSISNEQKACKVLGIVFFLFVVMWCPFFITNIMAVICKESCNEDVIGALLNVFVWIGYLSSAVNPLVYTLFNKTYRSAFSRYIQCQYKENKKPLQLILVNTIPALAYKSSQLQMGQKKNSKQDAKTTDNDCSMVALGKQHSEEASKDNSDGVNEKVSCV
Assay: Displacement of [3H]ketanserin human recombinant 5-HT2A receptor at 10 uM after 60 mins by scintillation counting analysis relative to control
Conditions: not given

Compound	Activity [%]
C/C=C/Cn1cc(-c2cc(OC)c(C(=O)N3CCOCC3)cc2OC)c2cc(C)[nH]c2c1=O	15
C/C=C/Cn1cc(-c2ccc(C(C)(C)O)cc2OC)c2cc[nH]c2c1=O	0

Tested on: LP-1
Assay: Cytotoxicity against human LP-1 cells measured after 8 days
Format: functional, cell-based
Conditions: LP-1, 192 h

Compound	IC50 [nM]
C/C=C/Cn1cc(-c2cc(OC)c(C(=O)N3CCOCC3)cc2OC)c2cc(C)[nH]c2c1=O	2000
C/C=C/Cn1cc(-c2ccc(C(C)(C)O)cc2OC)c2cc[nH]c2c1=O	19500

Tested on: not listed separately
Assay: Cytotoxicity against human NCI-H2595 cells measured after 8 days
Format: functional, cell-based
Conditions: NCI-H2595, 192 h

Compound	IC50 [nM]
C/C=C/Cn1cc(-c2cc(OC)c(C(=O)N3CCOCC3)cc2OC)c2cc(C)[nH]c2c1=O	2000
C/C=C/Cn1cc(-c2ccc(C(C)(C)O)cc2OC)c2cc[nH]c2c1=O	20000

Tested on: CX-1
Assay: Cytotoxicity against human CX-1 cells measured after 8 days
Format: functional, cell-based
Conditions: CX-1, 192 h

Compound	IC50 [nM]
C/C=C/Cn1cc(-c2cc(OC)c(C(=O)N3CCOCC3)cc2OC)c2cc(C)[nH]c2c1=O	2000
C/C=C/Cn1cc(-c2ccc(C(C)(C)O)cc2OC)c2cc[nH]c2c1=O	20000

Tested on: not listed separately
Assay: Cytotoxicity against human 501A cells measured after 8 days
Format: functional, cell-based
Conditions: 192 h

Compound	IC50 [nM]
C/C=C/Cn1cc(-c2cc(OC)c(C(=O)N3CCOCC3)cc2OC)c2cc(C)[nH]c2c1=O	2000
C/C=C/Cn1cc(-c2ccc(C(C)(C)O)cc2OC)c2cc[nH]c2c1=O	20000

Tested on: A-375
Assay: Cytotoxicity against human A-375 cells measured after 8 days
Format: functional, cell-based
Conditions: A-375, 192 h

Compound	IC50 [nM]
C/C=C/Cn1cc(-c2cc(OC)c(C(=O)N3CCOCC3)cc2OC)c2cc(C)[nH]c2c1=O	2000
C/C=C/Cn1cc(-c2ccc(C(C)(C)O)cc2OC)c2cc[nH]c2c1=O	20000

Tested on: not listed separately
Assay: Cytotoxicity against human ATRFLOX cells measured after 8 days
Format: functional, cell-based
Conditions: 192 h

Compound	IC50 [nM]
C/C=C/Cn1cc(-c2cc(OC)c(C(=O)N3CCOCC3)cc2OC)c2cc(C)[nH]c2c1=O	2000
C/C=C/Cn1cc(-c2ccc(C(C)(C)O)cc2OC)c2cc[nH]c2c1=O	20000

Biological target: Bromodomain testis-specific protein (Homo sapiens, UniProt Q58F21)
Assay: Binding affinity to human partial length BRDT bromodomain 2 (K250 to E382 residues) expressed in bacterial expression system by BROMOscan assay
Conditions: not given

Compound	Kd [nM]
C/C=C/Cn1cc(-c2cc(OC)c(C(=O)N3CCOCC3)cc2OC)c2cc(C)[nH]c2c1=O	> 10000
C/C=C/Cn1cc(-c2ccc(C(C)(C)O)cc2OC)c2cc[nH]c2c1=O	2600

Tested on: PA-1
Assay: Cytotoxicity against human PA-1 cells measured after 8 days
Format: functional, cell-based
Conditions: PA-1, 192 h

Compound	IC50 [nM]
C/C=C/Cn1cc(-c2cc(OC)c(C(=O)N3CCOCC3)cc2OC)c2cc(C)[nH]c2c1=O	2000
C/C=C/Cn1cc(-c2ccc(C(C)(C)O)cc2OC)c2cc[nH]c2c1=O	16400

Tested on: NCI-H1299
Assay: Cytotoxicity against human NCI-H1299 cells measured after 8 days
Format: functional, cell-based
Conditions: NCI-H1299, 192 h

Compound	IC50 [nM]
C/C=C/Cn1cc(-c2cc(OC)c(C(=O)N3CCOCC3)cc2OC)c2cc(C)[nH]c2c1=O	2000
C/C=C/Cn1cc(-c2ccc(C(C)(C)O)cc2OC)c2cc[nH]c2c1=O	20000

Tested on: IGR-37 cell line
Assay: Cytotoxicity against human IGR-37 cell line measured after 8 days
Format: functional, cell-based
Conditions: IGR-37, 192 h

Compound	IC50 [nM]
C/C=C/Cn1cc(-c2cc(OC)c(C(=O)N3CCOCC3)cc2OC)c2cc(C)[nH]c2c1=O	2000
C/C=C/Cn1cc(-c2ccc(C(C)(C)O)cc2OC)c2cc[nH]c2c1=O	20000

Biological target: Cyclin-dependent kinase 2/cyclin A (Homo sapiens) (UniProt P24941+P20248+P78396)
Assay: Inhibition of CDK2/cyclin A (unknown origin) at 1 uM relative to control
Format: protein-complex assay
Conditions: not given

Compound	inhibition [%]
C/C=C/Cn1cc(-c2cc(OC)c(C(=O)N3CCOCC3)cc2OC)c2cc(C)[nH]c2c1=O	0
C/C=C/Cn1cc(-c2ccc(C(C)(C)O)cc2OC)c2cc[nH]c2c1=O	1

Tested on: RERF-LC-MS
Assay: Cytotoxicity against human RERF-LC-MS cells measured after 8 days
Format: functional, cell-based
Conditions: 192 h

Compound	IC50 [nM]
C/C=C/Cn1cc(-c2cc(OC)c(C(=O)N3CCOCC3)cc2OC)c2cc(C)[nH]c2c1=O	2000
C/C=C/Cn1cc(-c2ccc(C(C)(C)O)cc2OC)c2cc[nH]c2c1=O	20000

Tested on: NCI-H2009
Assay: Cytotoxicity against human NCI-H2009 cells measured after 8 days
Format: functional, cell-based
Conditions: NCI-H2009, 192 h

Compound	IC50 [nM]
C/C=C/Cn1cc(-c2cc(OC)c(C(=O)N3CCOCC3)cc2OC)c2cc(C)[nH]c2c1=O	2000
C/C=C/Cn1cc(-c2ccc(C(C)(C)O)cc2OC)c2cc[nH]c2c1=O	20000

Biological target: T1, E3 ubiquitin-protein ligase TRIM33 (Homo sapiens, UniProt Q9UPN9)
T1 sequence (Q9UPN9 whole entry): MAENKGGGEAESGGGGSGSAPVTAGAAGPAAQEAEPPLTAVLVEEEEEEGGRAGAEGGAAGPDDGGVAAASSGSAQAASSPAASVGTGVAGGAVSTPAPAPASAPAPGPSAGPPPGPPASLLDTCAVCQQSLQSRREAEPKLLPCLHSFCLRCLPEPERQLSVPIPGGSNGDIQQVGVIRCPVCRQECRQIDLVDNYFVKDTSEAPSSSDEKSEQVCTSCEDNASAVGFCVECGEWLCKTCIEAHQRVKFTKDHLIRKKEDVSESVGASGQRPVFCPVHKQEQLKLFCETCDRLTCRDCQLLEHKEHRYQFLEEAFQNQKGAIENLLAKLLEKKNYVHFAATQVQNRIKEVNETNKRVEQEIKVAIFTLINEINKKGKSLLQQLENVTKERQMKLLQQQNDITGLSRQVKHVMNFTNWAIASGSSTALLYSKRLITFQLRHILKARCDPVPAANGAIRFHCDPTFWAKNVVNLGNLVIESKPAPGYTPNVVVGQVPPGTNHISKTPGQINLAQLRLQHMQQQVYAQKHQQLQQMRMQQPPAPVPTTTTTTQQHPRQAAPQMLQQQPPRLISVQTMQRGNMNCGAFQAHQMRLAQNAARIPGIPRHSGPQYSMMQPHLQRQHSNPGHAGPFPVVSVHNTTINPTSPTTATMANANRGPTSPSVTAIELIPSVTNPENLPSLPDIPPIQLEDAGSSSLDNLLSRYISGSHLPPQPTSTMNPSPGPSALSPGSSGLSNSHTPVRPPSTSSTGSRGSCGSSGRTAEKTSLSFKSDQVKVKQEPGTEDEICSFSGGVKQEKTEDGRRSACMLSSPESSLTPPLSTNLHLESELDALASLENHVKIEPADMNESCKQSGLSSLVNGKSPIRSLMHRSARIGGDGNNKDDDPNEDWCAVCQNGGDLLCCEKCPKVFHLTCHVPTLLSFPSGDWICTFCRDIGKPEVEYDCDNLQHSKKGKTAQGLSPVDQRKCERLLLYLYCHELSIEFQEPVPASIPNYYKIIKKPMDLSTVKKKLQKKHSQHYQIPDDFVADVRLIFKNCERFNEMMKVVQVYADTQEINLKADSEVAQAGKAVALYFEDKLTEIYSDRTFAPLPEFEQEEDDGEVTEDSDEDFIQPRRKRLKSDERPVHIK
Assay: Binding affinity to human partial length TRIM33 (D882 to A1087 residues) expressed in bacterial expression system by BROMOscan assay
Conditions: not given

Compound	Kd [nM]
C/C=C/Cn1cc(-c2cc(OC)c(C(=O)N3CCOCC3)cc2OC)c2cc(C)[nH]c2c1=O	> 5000
C/C=C/Cn1cc(-c2ccc(C(C)(C)O)cc2OC)c2cc[nH]c2c1=O	> 10000

Biological target: T2, Bromodomain-containing protein 7 (Homo sapiens, UniProt Q9NPI1)
T2 sequence (Q9NPI1 whole entry): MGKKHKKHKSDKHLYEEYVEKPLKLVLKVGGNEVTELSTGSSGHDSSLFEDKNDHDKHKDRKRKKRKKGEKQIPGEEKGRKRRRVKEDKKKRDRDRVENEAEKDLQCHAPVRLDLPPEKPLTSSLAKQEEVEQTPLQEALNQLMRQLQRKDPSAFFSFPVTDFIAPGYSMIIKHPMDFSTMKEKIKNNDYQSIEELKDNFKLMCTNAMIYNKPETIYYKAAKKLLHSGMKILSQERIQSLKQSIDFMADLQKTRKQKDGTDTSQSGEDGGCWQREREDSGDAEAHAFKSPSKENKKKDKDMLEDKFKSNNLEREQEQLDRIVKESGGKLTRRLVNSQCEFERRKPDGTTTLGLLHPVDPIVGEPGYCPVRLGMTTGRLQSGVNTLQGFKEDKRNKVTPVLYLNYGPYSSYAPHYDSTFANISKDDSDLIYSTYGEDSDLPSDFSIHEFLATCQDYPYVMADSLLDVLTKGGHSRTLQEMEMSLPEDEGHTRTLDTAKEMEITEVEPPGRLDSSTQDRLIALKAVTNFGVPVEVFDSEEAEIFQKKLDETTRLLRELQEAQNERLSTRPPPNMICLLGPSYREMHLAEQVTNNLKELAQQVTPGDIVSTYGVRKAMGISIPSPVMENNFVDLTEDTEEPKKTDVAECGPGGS
Assay: Binding affinity to human partial length BRD7 (L125 to R254 residues) expressed in mammalian expression system by BROMOscan assay
Conditions: not given

Compound	Kd [nM]
C/C=C/Cn1cc(-c2cc(OC)c(C(=O)N3CCOCC3)cc2OC)c2cc(C)[nH]c2c1=O	110
C/C=C/Cn1cc(-c2ccc(C(C)(C)O)cc2OC)c2cc[nH]c2c1=O	340
